Laboratory results as given in patent US20190374627A1, “TARGET PEPTIDES FOR CANCER THERAPY AND DIAGNOSTICS” (priority 2016, published 2019).
Entries after “also recorded” stand apart in the source; their conditions may differ. Square brackets hold non-standard residues; d marks the D form. Ends that are not written are not given here. pY = N[C@@H](Cc1ccc(OP(=O)(O)O)cc1)C(=O)O; pS = N[C@@H](COP(=O)(O)O)C(=O)O

Columns and labels:
[1] = test system: unexpanded lymphocyte cultures (CD8^+ T cells); assay: ICS for MHC-I-pP reactivity of lymphocyte cultures without expansion (Table 23, No Expansion)
[2] = test system: CD8^+ T cells (PBMCs); assay: Intracellular cytokine staining (ICS) of PBMCs after 7 days of stimulation with MHC-I-pP (healthy donors, HH patients); type: cell-based, human; settings: for Reactive CD8^+ T cell population, HH2: HH patient HH2; for Reactive CD8^+ T cell population, HH3: HH patient HH3; for Reactive CD8^+ T cell population, HH6: HH patient HH6; for Reactive CD8^+ T cell population, HH8: HH patient HH8; for Reactive CD8^+ T cell population, HH10: HH patient HH10; for Reactive CD8^+ T cell population, HH11: HH patient HH11; for Reactive CD8^+ T cell population, HD1: Healthy donor HD1; for Reactive CD8^+ T cell population, HD2: Healthy donor HD2; for Reactive CD8^+ T cell population, HD3: Healthy donor HD3; for Reactive CD8^+ T cell population, HD4: Healthy donor HD4; for Reactive CD8^+ T cell population, HD5: Healthy donor HD5
Summary of the method: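 PBMCs or liver lymphocytes from HLA-A*0201-positive healthy donors and hereditary hemochromatosis patients were stimulated for 7 days with HLA-A*0201-restricted phosphopeptides and no added cytokines. After exclusion of doublets and dead cells with a fixable viability dye, CD3^+CD8^+ cells were analysed by intracellular staining for IFN-γ and TNF-α, plus CD107a where needed.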

[3] = test system: expanded lymphocyte cultures from deceased donor livers, cirrhotic livers and HCC; assay: ICS for MHC-I-pP reactivity of liver-derived lymphocyte cultures after phosphopeptide-specific expansion; type: cell-based, human; settings: for ppCTL response, Deceased Donor Liver Do 2 / ppCTL response, Deceased Donor Liver Do 3 / ppCTL response, Deceased Donor Liver Do 4 / ppCTL response, Deceased Donor Liver Do 6 / ppCTL response, End-stage Liver Cirrhosis IHL 11 / ppCTL response, End-stage Liver Cirrhosis IHL 12 / ppCTL response, End-stage Liver Cirrhosis IHL 13 / ppCTL response, End-stage Liver Cirrhosis IHL 15 / ppCTL response, HCC Distal HCC 1 / ppCTL response, HCC Tumor HCC 1 / ppCTL response, HCC Distal HCC 4 / ppCTL response, HCC Distal HCC 9 / ppCTL response, HCC Tumor HCC 9 / ppCTL response, HCC Distal HCC 12: pP-specifically expanded culture; for ppCTL response, HCC Distal HCC 1: HCC 1 Distal; for ppCTL response, HCC Tumor HCC 1: HCC 1 Tumor; for ppCTL response, HCC Distal HCC 4: HCC 4 Distal; for ppCTL response, HCC Distal HCC 9: HCC 9 Distal; for ppCTL response, HCC Tumor HCC 9: HCC 9 Tumor; for ppCTL response, HCC Distal HCC 12: HCC 12 Distal
[4] = test system: CD8^+ T cells (PBMCs); assay: Ex vivo ICS of PBMCs after stimulation for 4 hours with the peptide; type: cell-based, human; settings: PBMCs of a patient with hereditary hemochromatosis, 4 hours stimulation
[5] = test system: expanded TIL / IHL cultures; assay: ICS for MHC-I-pP reactivity of liver-derived lymphocyte cultures after unspecific rapid expansion protocol (REP); type: cell-based, human

Row | Substance | Reactive CD8^+ T cells, No Expansion, HH6 [1] | Reactive CD8^+ T cell population, HH2 [2] | Reactive CD8^+ T cell population, HH3 [2] | Reactive CD8^+ T cell population, HH6 [2] | Reactive CD8^+ T cell population, HH8 [2] | Reactive CD8^+ T cell population, HD1 [2] | Reactive CD8^+ T cell population, HD4 [2] | Reactive CD8^+ T cell population, HD5 [2] | Reactive CD8^+ T cells, pP-specific Expansion, Do2 [3] | Reactive CD8^+ T cells, pP-specific Expansion, Do4 [3] | Reactive CD8^+ T cells, pP-specific Expansion, HH6 [3] | ppCTL response, Deceased Donor Liver Do 2 [3] | ppCTL response, Deceased Donor Liver Do 3 [3] | ppCTL response, Deceased Donor Liver Do 4 [3] | ppCTL response, Deceased Donor Liver Do 6 [3] | ppCTL response, End-stage Liver Cirrhosis IHL 11 [3] | ppCTL response, End-stage Liver Cirrhosis IHL 12 [3] | ppCTL response, End-stage Liver Cirrhosis IHL 13 [3] | ppCTL response, End-stage Liver Cirrhosis IHL 15 [3] | ppCTL response, HCC Distal HCC 1 [3] | other results
1 | RVAsPTSGV: IRS2 phosphopeptide, HLA-A*0201 (RVA[pS]PTSGV; listed as Homo sapiens) | 0 (<0.25% reactive CD8^-+ T cells) | 0 (<0.25% reactive CD8^-+ T cells) | 0 (<0.25% reactive CD8^-+ T cells) | 0 (<0.25% reactive CD8^-+ T cells) | 0 (<0.25% reactive CD8^-+ T cells) | 0 (<0.25% reactive CD8^-+ T cells) | 0 (<0.25% reactive CD8^-+ T cells) | 0 (<0.25% reactive CD8^-+ T cells) | 0 (<0.25% reactive CD8^-+ T cells) | 2 (2.5-5.0% reactive CD8^-+ T cells) | 0 (<0.25% reactive CD8^-+ T cells) | 0 (<0.25% reactive CD8-+ T cells) | 0 (<0.25% reactive CD8-+ T cells) | 2 (2.5-5.0% reactive CD8-+ T cells) | 1 (0.25-2.5% reactive CD8-+ T cells) | 0 (<0.25% reactive CD8-+ T cells) | 0 (<0.25% reactive CD8-+ T cells) | 0 (<0.25% reactive CD8-+ T cells) | 0 (<0.25% reactive CD8-+ T cells) | 0 (<0.25% reactive CD8-+ T cells) | Reactive CD8^+ T cells, No Expansion, Do4 [1]: 3 (5-7.5% reactive CD8^-+ T cells); Reactive CD8^+ T cell population, HH10 [2]: 2 (2.5-5.0% reactive CD8^-+ T cells); Reactive CD8^+ T cell population, HH11 [2]: 0 (<0.25% reactive CD8^-+ T cells); Reactive CD8^+ T cell population, HD2 [2]: 0 (<0.25% reactive CD8^-+ T cells); Reactive CD8^+ T cell population, HD3 [2]: 0 (<0.25% reactive CD8^-+ T cells); ppCTL response, HCC Tumor HCC 1 [3]: 0 (<0.25% reactive CD8-+ T cells); ppCTL response, HCC Distal HCC 4 [3]: 0 (<0.25% reactive CD8-+ T cells); ppCTL response, HCC Distal HCC 9 [3]: 0 (<0.25% reactive CD8-+ T cells); ppCTL response, HCC Tumor HCC 9 [3]: 0 (<0.25% reactive CD8-+ T cells); ppCTL response, HCC Distal HCC 12 [3]: 0 (<0.25% reactive CD8-+ T cells); ex vivo CD8^+ T cell response [4]: evident ex vivo; also recorded: ex vivo CD8^+ T cell response; Reactive CD8^+ T cells, Non-specific Expansion, Do2 [5]: 0 (<0.25% reactive CD8^-+ T cells); Reactive CD8^+ T cells, Non-specific Expansion, Do4 [5]: 0 (<0.25% reactive CD8^-+ T cells); Reactive CD8^+ T cells, Non-specific Expansion, HH6 [5]: 0 (<0.25% reactive CD8^-+ T cells)
2 | VMIGsPKKV: TNS3 phosphopeptide, HLA-A*0201 (VMIG[pS]PKKV; listed as Homo sapiens) | 0 (<0.25% reactive CD8^-+ T cells) | 0 (<0.25% reactive CD8^-+ T cells) | 0 (<0.25% reactive CD8^-+ T cells) | 0 (<0.25% reactive CD8^-+ T cells) | 0 (<0.25% reactive CD8^-+ T cells) | 0 (<0.25% reactive CD8^-+ T cells) | 0 (<0.25% reactive CD8^-+ T cells) | 0 (<0.25% reactive CD8^-+ T cells) | 1 (0.25-2.5% reactive CD8^-+ T cells) | 0 (<0.25% reactive CD8^-+ T cells) | 0 (<0.25% reactive CD8^-+ T cells) | 2 (2.5-5.0% reactive CD8-+ T cells) | 0 (<0.25% reactive CD8-+ T cells) | 0 (<0.25% reactive CD8-+ T cells) | 0 (<0.25% reactive CD8-+ T cells) | 0 (<0.25% reactive CD8-+ T cells) | 0 (<0.25% reactive CD8-+ T cells) | 0 (<0.25% reactive CD8-+ T cells) | 0 (<0.25% reactive CD8-+ T cells) | 0 (<0.25% reactive CD8-+ T cells) | Reactive CD8^+ T cells, No Expansion, Do4 [1]: 0 (<0.25% reactive CD8^-+ T cells); Reactive CD8^+ T cell population, HH10 [2]: 1 (0.25-2.5% reactive CD8^-+ T cells); Reactive CD8^+ T cell population, HH11 [2]: 0 (<0.25% reactive CD8^-+ T cells); Reactive CD8^+ T cell population, HD2 [2]: 0 (<0.25% reactive CD8^-+ T cells); Reactive CD8^+ T cell population, HD3 [2]: 0 (<0.25% reactive CD8^-+ T cells); ppCTL response, HCC Tumor HCC 1 [3]: 0 (<0.25% reactive CD8-+ T cells); ppCTL response, HCC Distal HCC 4 [3]: 0 (<0.25% reactive CD8-+ T cells); ppCTL response, HCC Distal HCC 9 [3]: 0 (<0.25% reactive CD8-+ T cells); ppCTL response, HCC Tumor HCC 9 [3]: 0 (<0.25% reactive CD8-+ T cells); ppCTL response, HCC Distal HCC 12 [3]: 0 (<0.25% reactive CD8-+ T cells); Reactive CD8^+ T cells, Non-specific Expansion, Do2 [5]: 0 (<0.25% reactive CD8^-+ T cells); Reactive CD8^+ T cells, Non-specific Expansion, Do4 [5]: 0 (<0.25% reactive CD8^-+ T cells); Reactive CD8^+ T cells, Non-specific Expansion, HH6 [5]: 0 (<0.25% reactive CD8^-+ T cells)
3 | yLQSRYYRA: HIPK3 phosphopeptide, HLA-A*0201 ([pY]LQSRYYRA; listed as Homo sapiens) | 1 (0.25-2.5% reactive CD8^-+ T cells) | 0 (<0.25% reactive CD8^-+ T cells) | 0 (<0.25% reactive CD8^-+ T cells) | 1 (0.25-2.5% reactive CD8^-+ T cells) | 0 (<0.25% reactive CD8^-+ T cells) | 0 (<0.25% reactive CD8^-+ T cells) | 0 (<0.25% reactive CD8^-+ T cells) | 0 (<0.25% reactive CD8^-+ T cells) | 2 (2.5-5.0% reactive CD8^-+ T cells) | 0 (<0.25% reactive CD8^-+ T cells) | 0 (<0.25% reactive CD8^-+ T cells) | 2 (2.5-5.0% reactive CD8-+ T cells) | 0 (<0.25% reactive CD8-+ T cells) | 0 (<0.25% reactive CD8-+ T cells) | 0 (<0.25% reactive CD8-+ T cells) | 0 (<0.25% reactive CD8-+ T cells) | 0 (<0.25% reactive CD8-+ T cells) | 0 (<0.25% reactive CD8-+ T cells) | 0 (<0.25% reactive CD8-+ T cells) | 0 (<0.25% reactive CD8-+ T cells) | ppCTL response, HCC Tumor HCC 1 [3]: 0 (<0.25% reactive CD8-+ T cells); ppCTL response, HCC Distal HCC 4 [3]: 0 (<0.25% reactive CD8-+ T cells); ppCTL response, HCC Distal HCC 9 [3]: 0 (<0.25% reactive CD8-+ T cells); ppCTL response, HCC Tumor HCC 9 [3]: 1 (0.25-2.5% reactive CD8-+ T cells); ppCTL response, HCC Distal HCC 12 [3]: 0 (<0.25% reactive CD8-+ T cells); Reactive CD8^+ T cells, Non-specific Expansion, Do2 [5]: 0 (<0.25% reactive CD8^-+ T cells); Reactive CD8^+ T cells, Non-specific Expansion, Do4 [5]: 0 (<0.25% reactive CD8^-+ T cells); Reactive CD8^+ T cells, Non-specific Expansion, HH6 [5]: 0 (<0.25% reactive CD8^-+ T cells)
